From US20120131687A1 (priority 2008, published 2012)

Tests used:
cotton aphid seizure D2 [1] = molecular target: T1, cotton aphid seizure D2 (Aphis gossypii, UniProt A0A9P0IRJ5, DEL620-651/K982T, form not given); assay: Electrophysiological analysis by two-electrode voltage clamp (TEVC) method using Xenopus laevis oocyte; format: cell-based; settings: read-out: IC50 on cotton aphid seizure D2, protocol IV
Text: Regarding four kinds of cotton aphid seizure splice variants (D1, D2, E1, E2), a gene optimal for producing a gene-recombinant nematode was selected by electrophysiological analysis by the two-electrode voltage clamp method (TEVC method) using an oocyte of Xenopus laevis.
In order to continuously maintain circulation and cleaning of water, female Xenopus laevis was reared in a water bath equipped with an air pump and a filtration device. For Xenopus laevis, a laboratory rearing line was purchased from NASCO (Fort Atkinson, Wis., USA), and adapted to a dry sample, and used in an experiment. Xenopus laevis was reared in tap water retained at a water temperature of 18° C., and a light/dark cycle of each 12 hours was artificially given. Xenopus laevis was anesthetized using a 2 g/l tolycaine aqueous solution, and subsequently cooled with an ice. […]
Using an amplifier TEC-03X manufactured by npi electronics (Tamm, Germany), and software Cellworks, an electrophysiological measurement was performed by the two-electrode voltage clamp method. Experimental data was recorded at room temperature (20 to 25° C.). […]
An activity of a compound was measured using protocol IV by the following procedure. […]
At each test concentration, an amplitude of a current waveform in last three times of continuous pulses was averaged, and a calculated current value was used for calculating an inhibition degree. […]

[2] = molecular target: nematode functionally expressing cotton aphid seizure (Aphis gossypii, UniProt A0A9P0IRJ5, DEL620-651/K982T, form not given); assay: Feeding behavior activity (calcein AM intake) of recombinant nematode UG2346 functionally expressing cotton aphid seizure; format: in vivo; settings: read-out: Activity to inhibit feeding behavior of nematode functionally expressing cotton aphid seizure (IC50), 0.03-100 μM
Procedure: In the pharynx of a gene-altered nematode, change in electric activity in cotton aphid seizure influences on an action of the pharynx, that is, intake of food. Therefore, the ability to change an activity of cotton aphid seizure can be measured as the ability to change intake of food, of the gene-recombinant nematode.
Intake of food of the nematode was measured by a method of adding a fluorescent dye precursor to a medium. Specifically, since the fluorescent dye precursor orally taken by the nematode is enzymatically converted into a fluorescent dye in the gut, and a fluorescent signal emitted by the gene-recombinant nematode is increased, intake of food of the nematode can be measured as a fluorescent signal emitted by the nematode.
For measuring the activity to change a feeding behavior activity of a nematode expressing cotton aphid seizure in a functional form, a fluorescent dye precursor was added to a liquid medium containing the nematode expressing cotton aphid seizure in a functional form, and intake of the fluorescent dye precursor orally ingested by the nematode was detected as a fluorescent signal emitted by the nematode. When intake of the fluorescent dye precursor was defined as a feeding behavior activity, an influence of a test substance on a feeding behavior activity was assessed as an influence, on an activity of cotton aphid seizure. […]

Aphis gossypii = assay: Pesticidal activity test on artificial feed; format: in vivo; settings: 50 ppm in artificial feed, six days, controlling value of 30% or more = active
Procedure: Then, according to the same manner as that of the method described in Handbook of Insect Rearing Vol. 1 (Elsevier Science Publishers 1985) pp. 35 to pp. 36 except that a test compound dissolved in DMSO to a final concentration of 50 ppm was added at 0.5% volume of the artificial feed, and components were mixed, Aphis gossypii was reared. […] Controlling value(%)={1−(Cb×Tai)/(Cai×Tb)}×100 Letters in the equation represent the following meanings. Cb: Number of surviving worms before treatment in non-treated section Cai: Number of surviving worms at observation in non-treated section Tb: Number of surviving worms before treatment in treated section Tai: Number of surviving worms at observation in treated section

cotton aphid seizure D2 [3] = molecular target: T1, cotton aphid seizure D2; assay: Electropharyngeogram of recombinant nematode UG2242 expressing cotton aphid seizure D2; format: in vivo
Procedure: By recording a electropharyngeogram using UG2242 which is a transient transformed line, and UG2346 which is a stable transformed line, it was confirmed that the introduced cotton aphid seizure gene was expressed in a functional form.
An imago of a nematode reared at 20° C. was prepared. Using Dent's saline (composition in mM; D-glucose 10 mM, HEPES 10 mM, NaCl 140 mM, KCl 6 mM, CaCl2 3 mM, MgCl2 1 mM, pH 7.4) containing 20 mM serotonin promoting pumping as a chamber internal solution, the nematode was placed into the chamber. Aspiration was performed until the Dent's saline which is a chamber internal solution was contacted with an electrode in a micropipette. After mild aspiration, a head of the nematode was inserted into a tip of a pipette for recording. Data was obtained with an amplifier (Multiclamp 700-A, Axon instruments) and an A/D converter (Digidata 1322A, Axon instruments).

cotton aphid seizure D2 [4] = molecular target: T1, cotton aphid seizure D2; assay: Whole cell patch clamp method using CHO cell expressing cotton aphid seizure D2; format: cell-based; settings: 30 μM clofilium
Procedure: Using a CHO cell expressing cotton aphid seizure D2, an activity of a voltage-gated potassium channel was measured by a whole cell patch clamp method.
According to a general tissue culturing procedure, pGBB036 produced in Example 5 was transiently introduced into the CHO cell. In order to confirm that gene introduction is successful, a GFP gene which is a fluorescent marker was simultaneously introduced into the CHO cell. A ratio of pGBB036 and the marker gene was 10:1. It was possible to simply identify the cell for which gene introduction was successful with an incident-light fluorescence microscope. After cultured for 24 hours, the gene-introduced cell was dispensed, frozen, and immediately cryopreserved at −150° C. On the day before implementation of an electrophysiological experiment, the cryopreserved cell was suspended in a fresh medium again, and the cell was seeded on a cover glass having a diameter of 12 mm which was spread in a petri dish. The petri dish was retained at a temperature of 37° C. under the condition of CO2 at a 5% concentration. […]
Recording by the whole cell patch clamp method was implemented on one CHO cell. […] Recorded signals were all amplified with an amplifier PC-501A manufactured by Warner Instruments (Hamden, Conn., USA) and, thereafter, was digitalized at 10 kHz. […]

nematode = settings: Drinking Assay, WO 01/88532; cited from earlier work

T1 sequence (A0A9P0IRJ5 entry or part of it DEL620-651/K982T, form open): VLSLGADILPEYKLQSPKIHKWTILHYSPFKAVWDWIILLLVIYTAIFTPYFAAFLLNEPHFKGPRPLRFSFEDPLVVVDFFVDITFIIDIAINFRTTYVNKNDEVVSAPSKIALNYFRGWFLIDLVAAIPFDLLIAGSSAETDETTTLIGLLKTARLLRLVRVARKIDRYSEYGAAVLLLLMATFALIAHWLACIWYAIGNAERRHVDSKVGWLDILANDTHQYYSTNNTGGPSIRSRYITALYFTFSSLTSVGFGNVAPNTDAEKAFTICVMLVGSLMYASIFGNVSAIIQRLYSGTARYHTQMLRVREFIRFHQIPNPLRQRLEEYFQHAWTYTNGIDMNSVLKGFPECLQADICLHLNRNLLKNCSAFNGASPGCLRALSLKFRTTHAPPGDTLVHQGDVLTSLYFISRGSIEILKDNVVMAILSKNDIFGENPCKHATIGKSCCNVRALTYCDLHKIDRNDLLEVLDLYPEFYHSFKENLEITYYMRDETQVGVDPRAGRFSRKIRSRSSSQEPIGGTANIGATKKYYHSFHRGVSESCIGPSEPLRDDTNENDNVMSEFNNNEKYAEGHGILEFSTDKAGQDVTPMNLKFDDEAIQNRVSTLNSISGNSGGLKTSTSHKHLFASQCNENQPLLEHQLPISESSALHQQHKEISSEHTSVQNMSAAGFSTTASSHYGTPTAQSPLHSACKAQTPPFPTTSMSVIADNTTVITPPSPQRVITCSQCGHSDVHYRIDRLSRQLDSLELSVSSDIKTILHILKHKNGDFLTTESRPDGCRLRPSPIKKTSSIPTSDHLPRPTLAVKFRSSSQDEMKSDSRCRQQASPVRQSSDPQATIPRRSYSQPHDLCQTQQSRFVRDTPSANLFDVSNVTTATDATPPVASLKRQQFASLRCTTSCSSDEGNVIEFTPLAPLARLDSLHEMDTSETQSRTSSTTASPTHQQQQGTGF
Sequence of nematode functionally expressing cotton aphid seizure (A0A9P0IRJ5 entry or part of it DEL620-651/K982T, form open): as above

CN(CCOc1ccc(NS(C)(=O)=O)cc1)CCc1ccc(NS(C)(=O)=O)cc1 [Dofetilide]
IC50 (cotton aphid seizure D2 [1]): ~23 µM

CCCCCCC[N+](CC)(CC)CCCCc1ccc(Cl)cc1.Cc1ccc(S(=O)(=O)[O-])cc1 [clofilium]
IC50 [2]: 4 µM
Result of determination of insecticidal activity (Aphis gossypii): Having insecticidal activity
IC50 (cotton aphid seizure D2 [1]): ~1 µM
length of a potential waveform in electropharyngeogram (cotton aphid seizure D2 [3]; 5 μM treatment for 5 minutes): significantly increased
potential waveform in electropharyngeogram (cotton aphid seizure D2 [3]; 5 μM treatment, after 15 minutes): the same potential waveform as that of a wild-type
activity of a channel inhibited relative to non-treatment (cotton aphid seizure D2 [4]): 86%

CN(C)CCCN1c2ccccc2CCc2ccc(Cl)cc21 [clomipramine]
food intake by a nematode (nematode): increases food intake

ivermectin
food intake by a nematode (nematode): inhibits food intake
